Data set [1] concerns LPC lesions of MBP-deficient shiverer spinal cords transplanted with human iPSC-derived oligodendrocytes. The data set is described as follows: Remyelination in LPC lesions of shiverer spinal cords grafted with hiOLs. The format is in vivo, mouse. As to conditions: gavage during 8 or 10 wkpg. An excerpt:
FIG. 48. In vivo results of Bavisant treatment on remyelination in LPC lesions of MBP-deficient shiverer spinal cords transplanted with human iPSC-derived oligodendrocytes. […] Exogenous myelin is detected by MBP and endogenous myelin by MOG.

Data set [2] relates to LPC-induced demyelinated lesions of the mouse spinal cord. Kind of data set: LPC model of focal demyelination of the mouse spinal cord. The format is in vivo.
Data set [3] relates to primary human A2B5+ pre-oligodendrocytes. The data set is described as follows: Ensheathment by primary human A2B5+ oligodendrocyte lineage cells. The format is cell-based. As to conditions: for percentage of ensheathed O4+ cells: human adult A2B5+ cells, 14 days. The method, then:
FIG. 49. […] The experiments were conducted using primary human oligodendrocyte lineage cells obtained from surgically derived tissue specimens. Specimens were derived either from adults or pediatric age groups. […] Percentages of ensheathed O4+ cells were calculated by the total ensheathed O4+ cells out of total O4+ cells. HA-human adult, HP-human pediatric. *p<0.05.

The next data set deals with mouse cortical neurons. The data set is described as follows: Morphological integrity evaluation, NMDA 8 μM (MAP2 neurite length and branching). The data set is classed as cell-based. As to conditions: 3 h pre-treatment, NMDA 8 μM 24 h; Z>0.5 criteria. The method in brief: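 Mouse cortical neurons (14 DIV) pre-treated 3 h with compounds, then exposed 24 h to 8 μM NMDA; fixed, MAP2 immunostained with DAPI. Total neurite length and non-trunk branch number from 15 images/well, triplicates, converted to plate-based Z-scores; NAC positive, staurosporine and NMDA negative controls.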

Data set [4] has as its system iPSC-derived neurons (DIV45). As to conditions: human. The method, then: This protocol was modified from Yuchen Qi et al.^32 First, neural progenitors (NPCs) were generated from hiPSCs by dual-SMAD inhibition. Shortly, at day 0 iPSC colonies (confluent at 70-80%) were washed with PBS Dulbecco's w/o Calcium w/o Magnesium (Euroclone) and hiPSCs' maintenance medium (mTeSR™, StemCell Technologies) was replaced with neural induction medium composed by DMEM/F12 plus N2 medium (1×), B27 without RA supplement (0.5×) (Life Technology), added with SB431542 (10 μM) and LDN (500 nM). This medium was kept until day 4 (“induction”). At day 4, cells were splitted (1:3) with the same induction medium using Accutase®/Accumax™ (StemCell Technologies) dissociated solution. Entire medium was replaced daily up to days 14-16 until rosette formation was observed (“patterning”). At days 14-16, cells were detached by Accutase®/Accumax™ and re-plated on polyornitine/laminin/fibronectin coated MW96 or MW24 plates for terminal differentiation in Neurobasal medium supplemented with B27 (0.5×), BDNF (20 ng/ml), dbcAMP (500 μM), ascorbic acid (200 μM), PD0325901 (1 μM), SU5402 (5 μM), CHIR (3 μM), human recombinant insulin (5 μg/ml), supplemented with RI (Rock inhibitor) (1:3000) to reduce dissociation induced apoptosis. The half of differentiation medium was changed every 3-4 days, supplemented with 1 μg/ml laminin and DAPT (1-2 μM) until terminal maturation of neuronal population (MAP2+ cells). Cultures were characterized by immunocytochemistry and qRT-PCR and neuroprotective experiments were performed on days 30-40 of differentiation.
Evaluation of cytotoxicity of 160 selected compounds on iPSC-derived neurons (DIV45).

Data set [5] has as its system human embryonic and fetal neural precursors (hufNPCs). The data set is described as follows: hufNPC differentiation towards TUJ1+ neurons. The format is cell-based. The following applies: 1 μM, 7 days. The method, then: First, fresh human fetal brain tissues were mechanically dissociated, followed by enzymatic dissociation with Trypsin (LONZA (BE17-161E) 1:5) in growth medium for 5-10 min at 37° C., 5% O2 e 5% CO2, then washed with 10% Australian FBS in fresh medium and centrifuged 15 min at 200 g. Cells were plated in T25 flask in Neural stem cell growth medium (NeuroCult-XF Basal Medium (cat. #05760)+ NeuroCult-XF Proliferation supplement (cat. #05763) (for Human Neural Stem Cells) […] TECHNOLOGIES+human recombinant carrier-free EGF (cat. #1325 9510 00) and bFGF (cat. #1370 9505 00) (Provitro) at final concentration of 20 ng/ml) at 37° C., 5% O2 e 5% CO2. After 15-25 days, enzymatic (Accumax®, StarFish cat. #GMP-102470) dissociation of neurospheres or subconfluent adherent cells was performed and cells were re-plated at density (25000 cells/cm2) in NGM. […] Pro-differentiating properties of 160 compounds were evaluated by co-incubating freshly seeded in 96 well plate hufNPCs with 1 μM compounds for 7 days (each compound was tested in triplicate). […] After one week, cells were fixed and analyzed via immunocytochemistry. […] 15 images per well were acquired and analyzed by CellProfiler. Number of TUJ1+/DAPI cells was counted and compared to DMSO.
160 selected non-toxic compounds pro-differentiating properties were evaluated on human embryonic and fetal neural precursors (hufNPCs). […]

Where [6] appears, read: 30 mg/kg daily oral gavage, 14 dpi.

Here are results for 5 compounds from patent US20240148745A1, “COMPOUNDS FOR USE IN PROGRESSIVE MULTIPLE SCLEROSIS” (FONDAZIONE CENTRO SAN RAFFAELE, priority 2021, published 2024).

As to `O=C(c1ccc(CN2CCOCC2)cc1)N1CCN(C2CC2)CC1` [Bavisant], in data set [1], the “remyelination potential of grafted hiOLs (MBP)” value is reported as “has the tendency to promote the remyelination potential of hiOLs”. Besides, the “density of Olig2+CC1+ differentiated oligodendrocytes in LPC lesions” value in data set [2] (30 mg/kg daily oral gavage, 5 to 14 dpi, readout 14 dpi) is “significantly increased the density of mature oligodendrocytes”. Further, in data set [2] (setting [6]), the “% of remyelinated axons in the lesion” value was “significantly increased the number of remyelinated axons” and the “axonal density in LPC lesions” value is reported as “not changes”. Further, the G-ratio entry in data set [2] (control vs treated, p<0.0001) is reported as “enhances remyelination in vivo”. In addition, in data set [3], the “toxicity on dissociated cultures” value was “No evidence of toxicity” and the “percentage of ensheathed O4+ cells” value is on record as “promote ensheathment of adult brain derived A2B5+ cells”.
As to `NCCCC[C@H](NC(=O)[C@@H](Cc1cc(Br)c(O)c(Br)c1)NC(=O)N1CCC(N2Cc3ccccc3NC2=O)CC1)C(=O)N1CCN(c2ccncc2)CC1` [Olcegepant], in the data set with mouse cortical neurons, the “preservation of neurite length and network integrity (branching)” value is “preserved both neurite length and the network integrity (branching)”.
In the case of `CC(=O)N1CCN([C@H]2CCN(C(=O)N(C)[C@H](C)c3cc(C(F)(F)F)cc(C(F)(F)F)c3)[C@@H](c3ccc(F)cc3C)C2)CC1` [Casopitant], the “viability compared to DMSO” value in data set [4] is given as 65-80%. Besides, in data set [3], the “toxicity on dissociated cultures” value was “No evidence of toxicity” and the “percentage of ensheathed O4+ cells” value is “promote ensheathment of adult brain derived A2B5+ cells”.
With `O=C(NOC[C@H](O)CO)c1ccc(F)c(F)c1Nc1ccc(I)cc1F` [PD-0325901], the “viability compared to DMSO” value in data set [4] is listed as 65-80%.
Regarding `CC1(C)CCC(C)(C)c2cc(NC(=O)c3ccc(C(=O)O)cc3)ccc21` [Tamibarotene], the “neuronal differentiation (TUJ1+/DAPI cells vs DMSO)” value in data set [5] is “significantly promoted neuronal differentiation compared to DMSO and heparin”.
